How the values were obtained:
[1] = microbe, parasite or virus in culture; conditions: Mycobacterium tuberculosis, 72 h, read-out: pIC50 (converted)
[2] = microbe, parasite or virus in culture; conditions: Mycobacterium tuberculosis, 96 h, read-out: pIC50 (converted)

| SMILES | IC50 [1] [µM] | IC50 [2] [µM] |
| --- | --- | --- |
| CS(=O)(=O)Nc1cccc(C(=O)Nc2ccccc2)c1 | 130 | 267 |
| COC(=O)c1ccc(CSc2n[nH]c(C)n2)o1 | 239 | 181 |
| Cc1c(C(=O)Nc2ccc3c(c2)OCCO3)cnn1C | > 501 | > 501 |
| CCCn1nnnc1NCc1ccc(F)cc1 | 37.8 | 19.8 |
| COc1ccc(OCCSc2n[nH]c(N)n2)cc1 | 199 | 220 |
| O=C(CCN1CCCCC1)c1ccc2c(c1)OCO2 | > 501 | > 501 |
| O=C(NCc1cccnc1)C1COc2ccccc2O1 (centres undefined) | > 501 | > 501 |
| CN1CCCN(C(=O)c2cc3c(s2)CCCC3)CC1 | 211 | > 501 |
| CCc1n[nH]c(SCC(=O)Nc2ccc(Br)cn2)n1 | 144 | 186 |
| CCCc1cc(C(=O)N2CCCN(C)CC2)cs1 | > 501 | > 501 |
| CN(C(=O)c1ccccc1)S(=O)(=O)c1ccccc1 | 280 | 303 |
| CC(=O)Nc1ccc(N2C(=O)C=CC2=O)cc1 | 181 | > 501 |
| Cc1occc1C(=O)NCC(CO)Cc1cccs1 (centres undefined) | > 501 | > 501 |
| CC1CCCCN1S(=O)(=O)c1ccc(CCN)cc1 (centres undefined) | > 501 | > 501 |
| COCCC1CN(C(=O)c2ccc(C)c(F)c2)CCO1 (centres undefined) | 257 | 234 |
| COc1c(F)cc(CN2CC[C@@H](N)[C@H](O)C2)cc1Cl | 279 | > 501 |
| Cc1ccc(F)c(S(=O)(=O)N2C[C@H](C3CC3)[C@@H](N)C2)c1 | > 501 | > 501 |
| Cn1nnnc1SCCNCc1ccc(Br)cc1 | 280 | 289 |
| Cc1cccc(CC(=O)N2CCn3cnnc3C2)c1 | 170 | 187 |
| CCN1CCN(Cc2nc(-c3ccccc3)no2)CC1 | > 501 | > 501 |
| CC(C)Oc1cccc(-c2cnn(CCC(N)=O)c2)c1 | 264 | 382 |
| Cc1nc(CN(C)C(=O)c2nc(C(C)C)cs2)no1 | 71.2 | 5.83 |

| SMILES | IC50 [1] [µM] | IC50 [2] [µM] |
| --- | --- | --- |
| CC(C)c1cc(C(=O)N(C)C(C)c2ccon2)on1 (centres undefined) | > 501 | 437 |
| Cc1ccc(C(O)c2cccnc2)cc1 (centres undefined) | > 501 | > 501 |
| CCC1(CO)CCCN(C(=O)c2ccc(COC)s2)C1 (centres undefined) | 148 | 246 |
| CCOC(=O)CNc1ccc(OC)cc1 | 124 | 335 |
| Cc1ccc(-c2noc(CNS(C)(=O)=O)n2)cc1 | 248 | > 501 |
| O=C(CC1COc2ccccc2O1)N1CCOCC1 (centres undefined) | 74.9 | 64 |
| Cc1ccoc1C(=O)N(C)Cc1nc(C(C)C)no1 | > 501 | 179 |
| CCOC(=O)Cn1nnc2ccccc2c1=O | > 501 | > 501 |
| CCCc1cc(C(=O)NCC2COCCO2)cs1 (centres undefined) | > 501 | 124 |
| CCCOCCNC(=O)c1cc(C(F)(F)F)n[nH]1 | 54.8 | 43.8 |
| Clc1ccc(N2CCN(Cc3ncc[nH]3)CC2)nc1 | 311 | > 501 |
| COCCOc1ccc(C(=O)NCc2ccco2)cc1 | 109 | 61.7 |
| O=C(Nc1nnc(-c2cccs2)s1)NC1CCCNC1 (centres undefined) | 127 | > 501 |
| NS(=O)(=O)c1cccc(S(=O)(=O)c2ccc(Cl)cc2)c1 | 71.4 | 283 |
| CCCc1nc(C(=O)NCCc2cccnc2)cs1 | 277 | 281 |
| Nc1nc(CCCNC(=O)Cc2ccsc2)cs1 | > 501 | > 501 |
| Cc1cccc(Cl)c1OCCN | 319 | > 501 |
| Fc1ccc2nc(N3CCCNCC3)oc2c1F | 51.6 | 122 |
| N[C@@H]1CC[C@@H](NC(=O)c2cc3sccc3[nH]2)C1 | 167 | > 501 |
| CCNCC(O)COc1ccc(C)cc1OC (centres undefined) | 218 | 10.5 |
| CCNC(=O)c1cc(-c2ccc(F)cc2)n[nH]1 | 209 | > 501 |
| CCCc1nnc(NC2CCN(C(=O)OCC)CC2)o1 | 180 | 72 |

| SMILES | IC50 [1] [µM] | IC50 [2] [µM] |
| --- | --- | --- |
| C=C(C)c1nc(C#N)c(NCc2ccco2)o1 | 142 | 170 |
| OCCOCCNCc1ccc(-c2ccc(F)cc2)o1 | 288 | 127 |
| CCCn1nnc(NCc2ccc(OC)cc2)n1 | 115 | 25.1 |
| NC(=O)COc1cccc(CN2CCC(F)CC2)c1 | > 501 | > 501 |
| CCOC(=O)Nc1ccc2c(c1)OCCO2 | > 501 | 325 |
| CCOC(=O)C1CCCN(C(=O)c2onc(C)c2Cl)C1 (centres undefined) | 232 | 303 |
| NCC(=O)Nc1ccc(Cl)c(F)c1 | 212 | 120 |
| CCc1ccc(CN2CC(N3CCOCC3)C2)o1 | 129 | 188 |
| CNc1cc(C(=O)NCC(OC)c2cccs2)ccn1 (centres undefined) | 22.9 | > 501 |
| O=C(C1CC1)N1CCN(Cc2cccc(F)c2)CC1 | > 501 | 210 |
| CCOC(=O)N1CCN(C(=O)Cc2cccs2)CC1 | 371 | > 501 |
| CSCCC(=O)NC(C)c1ccc2c(c1)OCCCO2 (centres undefined) | > 501 | > 501 |
| Nc1ncccc1C(=O)NCCC1=CCCCC1 | 230 | > 501 |
| Cc1c(C(=O)NC[C@H]2CCCN2)n(C)c2ccccc12 | > 501 | > 501 |
| CCCc1ccc(C(=O)N2CCCN(C)CC2)cc1 | 270 | > 501 |
| CC(C)Oc1ccc(CN)cc1 | 284 | > 501 |
| Cc1ncsc1CCCNC(=O)c1cnccn1 | > 501 | > 501 |
| CC1CCCN(c2nc(C(=O)N3CCOCC3)cs2)C1 (centres undefined) | 133 | 146 |
| O=C(COc1ccc(F)cc1)Nc1ccon1 | 186 | > 501 |
| CC(C)c1ccc(NC(=O)CN)cc1 | 245 | 204 |
| CCCc1nc(CN2Cc3ncccc3C2=O)cs1 | 120 | 119 |
| Cn1nc(C(F)(F)F)c(Cl)c1C(=O)N[C@@H]1CCNC1 | 168 | > 501 |

| SMILES | IC50 [1] [µM] | IC50 [2] [µM] |
| --- | --- | --- |
| CCCc1nc(C(=O)N2CC(c3ccncc3)C2)cs1 | 326 | 356 |
| COc1ccc2[nH]c(C(=O)NCC3CCCO3)cc2c1 (centres undefined) | 156 | 220 |
| NCc1cc(N[C@H](CO)CC2CCCCC2)ncn1 | 296 | > 501 |
| NCc1nc(-c2ccc(OC(F)(F)F)cc2)no1 | 70.7 | 190 |
| CCOc1ccc(CC(=O)N2CCN(CC)CC2)cc1 | 371 | > 501 |
| CCCNC(=O)c1nnn(-c2ccccc2OC)c1C | 191 | 6.03 |
| CCn1ccc(C(=O)NC(C)c2ccccc2)n1 (centres undefined) | 84.4 | 182 |
| CCCn1ccc(NC(=O)c2cccc(C#N)c2)n1 | > 501 | > 501 |
| Cc1nc(CCN)cc(NC2CCC2)n1 | 145 | > 501 |
| N[C@@H](CO)C(=O)N1CCC(Cc2ccc(F)cc2)CC1 | 195 | > 501 |
| CCO[C@H]1CN(c2nc(-c3ccccc3)no2)C[C@@H]1O | 262 | > 501 |
| NCC(=O)N1CCCC(CCc2c(F)cccc2F)C1 (centres undefined) | 238 | 258 |
| CC1=NOC(C(=O)NCCc2nc3c(s2)CCCC3)C1 (centres undefined) | 169 | 286 |
| O=C(CCn1cccc1)NCc1ccco1 | 96 | > 501 |
| O=C(c1ccc(Br)o1)N1CCN(Cc2ccco2)CC1 | 97.2 | 92 |
| CN1CCCCC1CC(=O)NCc1ccc(C#N)cc1 (centres undefined) | > 501 | > 501 |
| O=C(NCCSc1ccccn1)C1CCCCO1 (centres undefined) | 476 | > 501 |
| CCNCc1nc(-c2ccccc2)no1 | > 501 | > 501 |
| CNC(=O)c1cc(-c2ccccc2C)n[nH]1 | > 501 | 180 |
| CC(C)Cc1noc(-c2ccc(N(C)CCO)nc2)n1 | 239 | 397 |
| CCc1nc(C#N)c(NCc2ccc3c(c2)OCO3)o1 | 105 | 205 |
| O=C(NCC1COCCO1)c1cnc2ccccc2c1 (centres undefined) | > 501 | > 501 |

| SMILES | IC50 [1] [µM] | IC50 [2] [µM] |
| --- | --- | --- |
| Cc1cc(Cl)ccc1NC(=O)CN1CCN(C)CC1 | > 501 | > 501 |
| Clc1ccc2c(c1)CNCCO2 | 33.4 | 67.8 |
| C=C(C)COc1c(Cl)cc(C(N)=O)cc1OC | 223 | 295 |
| COC(=O)N1CCN(c2ccccn2)CC1 | > 501 | 168 |
| COCCN(Cc1ccsc1)C(=O)CC1CCNC1 (centres undefined) | 187 | 80.1 |
| OCCNCCNCc1ccc(-c2ccccc2F)o1 | 211 | 40.9 |
| O=C1C=CC(=O)N1c1ccccc1OC(F)F | 109 | 143 |
| COc1c(C)cc(Br)cc1C(=O)Nc1nnn(C)n1 | 206 | 209 |
| NCC1CN(c2nc3cc(Cl)ccc3o2)CCO1 (centres undefined) | 75.2 | 271 |
| Cc1ccc(CCNC(=O)CSCCN2CCCC2)o1 | 306 | > 501 |
| CC(C)CC(O)C(=O)N1CCN(c2cccnc2)CC1 (centres undefined) | 118 | > 501 |
| COc1ccc(C(N)CO)c2ccccc12 (centres undefined) | 193 | 313 |
| O=C(NCCSC(F)(F)F)Nc1cccc2[nH]nnc12 | 286 | 265 |
| C=C(C)COc1ccc(C(=O)NCC[C@@H](C)CO)cc1 | 440 | 283 |
| Cc1cc(C)c(CN2CCOC(CN)C2)cc1C (centres undefined) | 183 | 259 |
| Cc1cc(C(=O)NCc2cccc(F)c2)no1 | 52.9 | 308 |
| OC(CN1CCOC2(CCCC2)C1)c1ccccc1 (centres undefined) | 379 | 172 |
| COc1ccc(C(=O)CCN(C)C)cc1OC | 276 | 285 |
| CSCCC(=O)N(C)Cc1cccc(-n2cccn2)c1 | 269 | 286 |

— ChEMBL document CHEMBL3988442, “University of Dundee, Small-Polar-MMV Screening Library” (2021)
